Tests used:
JAK1/JAK2 pathway = test: Western blot p-STAT1/STAT1 in IFN-γ-stimulated HT-29 cells; type: cell-based; details: IFN-γ 100 ng/mL
Procedure: HT-29 cells were digested by trypsin and suspended in Dulbecco's Modified Eagle Medium (DMEM) and counted. The tested compounds were added into the 6 well plates (400 000/per well). After 2 hours, IFN-γ (100 ng/mL) was added to stimulate cells for 30 minutes. The cells were collected and lysed with protein lysate. The protein was quantitatively tested by BCA kit. Finally, p-STAT1/STAT1 and internal reference protein β-actin were detected by Western blot.

[1] = system: IFNα induced TYK2/JAK1 mediated STAT activation; test: Luciferase assay in L929 ISRE cells stimulated with IFN-α; type: cell-based; details: Mus musculus, IFN-α 100 ng/mL; for inhibition at 0.05 µM: 50 nM compound, read-out: Inhibitory activity % (50 nM); for inhibition at 0.2 µM: 200 nM compound, read-out: Inhibitory activity % (200 nM); for inhibition at 1 µM: 1000 nM compound, read-out: Inhibitory activity % (1000 nM)
Procedure: • 1. L929 ISRE cells (5000 cells/well) were seeded on 96-well plates and incubated overnight at room temperature-; • 2. The cells were pretreated by adding different concentrations (10 nM, 50 nM, 100 nM, 200 nM or 1000 nM) of the test compounds for 2 hours; • 3. Added IFN-α (100 ng/mL) to stimulate cells for 6 hours; • 4. Removed the upper medium, add PBS (100 μL) and washed, then removed PBS; • 5. Added PLB lysis solution (50 μL) to each well, shook the well for 15 minutes; • 6. Transferred PLB lysis solution (30 μL) to a new 96-well whiteboard, added LAR II reagent (LAR II), then quickly read the 450 nm OD value with a plate washer; • 7. Added Stop & Glo reagent (30 μL), then read the 450 nm OD value using the plate washer. • 8. The final result was the OD value in step 6/OD value in step 7.

TYK2/JAK2 pathway = test: Western blot p-STAT4/STAT4 in IL-12-stimulated mouse spleen cells; type: cell-based, mice; details: IL-12 50 ng/mL
Procedure: The spleen of mice was isolated and ground into single cells with bent tweezers. The single cells of the spleen were centrifuged for 5 minutes (400 g), and erythrocytes were lysed with Ammonium-Chloride-Potassium (ACK) solution and neutralized in 1640 medium, centrifuged for 5 minutes (400 g), and then re-suspended in 1640 medium. The spleen single cell suspension was counted, transferred to and incubated on a 6-well plate (5 million/well). The compounds to be tested were added. After 2 hours, IL-12 (50 ng/mL) was added to stimulate the cells for 1 h. The cells were collected and lysed with protein lysate. The protein was quantitatively tested by BCA kit. Finally, p-STAT4/STAT4 and internal reference protein […] were detected by Western blot.

JAK2/JAK2 pathway = test: Western blot p-STAT3/STAT3 in TPO-stimulated HEL cells; type: cell-based; details: TPO 100 ng/mL
Procedure: HEL cells were digested by trypsin, re-suspended in 1640 medium and counted. The compounds to be measured were added to 6 well plates (1 million/per well) for 2 hours, and then thrombopoietin (TPO)(final concentration: 100 ng/mL) was added to stimulate cells for 30 minutes. The cells were collected and lysed with protein lysate. The protein was quantitatively tested by bicinchoninic acid (BCA) kit. Finally, p-STAT3/STAT3 and internal reference protein β-actin were detected by Western blot.

Row | SMILES | effect on downstream STAT1 phosphorylation induced by IFN-γ (JAK1/JAK2 pathway) (JAK1/JAK2 pathway) | inhibition at 0.05 µM [1] [%] | inhibition at 0.2 µM [1] [%] | inhibition at 1 µM [1] [%] | inhibition of downstream STAT4 phosphorylation induced by IL-12 (TYK2/JAK2 pathway) (TYK2/JAK2 pathway) | effect on TPO-induced downstream STAT3 phosphorylation (JAK2/JAK2 pathway) (JAK2/JAK2 pathway)
1 | COc1c(Nc2cc(NC(=O)C3CC3)ncc2C(N)=O)cccc1-c1cc(P(=O)(C2CC2)C2CC2)n(C)n1 [Compound A2, 6-(cyclopropanecarboxamido)-4-((3-(5-(dicyclopropylphosphoryl)-1-methyl-1H-pyrazol-3-yl)-2-methoxyphenyl)amino)nicotinamide] | inhibited JAK1/JAK2 pathway in a concentration-dependent manner | 26 | 57 | 94 |  | 
2 | COc1c(Nc2cc(NC(=O)C3CC3)nnc2C(N)=O)cc(F)cc1-c1cc(P(=O)(C2CC2)C2CC2)n(C)n1 [Compound A8] | inhibited JAK1/JAK2 pathway in a concentration-dependent manner | 84 | 88 | 96 | effectively inhibited the downstream STAT4 phosphorylation induced by IL-12 | 
3 | COc1c(Nc2cc(Nc3ccc(F)cn3)nnc2C(N)=O)cccc1-c1cc(P(=O)(C2CC2)C2CC2)n(C)n1 [Compound A9] | inhibited JAK1/JAK2 pathway in a concentration-dependent manner |  |  |  | effectively inhibited the downstream STAT4 phosphorylation induced by IL-12 | 
4 | COc1c(Nc2cc(Nc3cc(C)ccn3)nnc2C(N)=O)cccc1-c1cc(P(=O)(C2CC2)C2CC2)n(C)n1 [Compound A12] | inhibited JAK1/JAK2 pathway in a concentration-dependent manner | 25 | 33 | 93 | effectively inhibited the downstream STAT4 phosphorylation induced by IL-12 | had no effect on TPO-induced downstream STAT3 phosphorylation
5 | COc1c(Nc2cc(Nc3ccn(C)n3)nnc2C(N)=O)cccc1-c1cc(P(=O)(C2CC2)C2CC2)n(C)n1 [Compound A17] | inhibited JAK1/JAK2 pathway in a concentration-dependent manner |  | 42 | 82 | effectively inhibited the downstream STAT4 phosphorylation induced by IL-12 | had no effect on TPO-induced downstream STAT3 phosphorylation
6 | COc1c(Nc2cc(Nc3cc(C)ccn3)nnc2C(N)=O)cccc1-c1cc(P(C)(C)=O)n(C)n1 [Compound A29] | inhibited JAK1/JAK2 pathway in a concentration-dependent manner |  |  | 93 | effectively inhibited the downstream STAT4 phosphorylation induced by IL-12 | had no effect on TPO-induced downstream STAT3 phosphorylation
7 | COc1c(Nc2cc(Nc3cc(C#N)ccn3)nnc2C(N)=O)cccc1-c1cc(P(=O)(C2CC2)C2CC2)n(C)n1 [Compound A35] | inhibited JAK1/JAK2 pathway in a concentration-dependent manner | 54 | 84 | 98 | effectively inhibited the downstream STAT4 phosphorylation induced by IL-12 | had no effect on TPO-induced downstream STAT3 phosphorylation
8 | [2H]C([2H])([2H])n1nc(-c2cccc(Nc3cc(Nc4cc(C#N)ccn4)nnc3C(N)=O)c2OC)cc1P(=O)(C1CC1)C1CC1 [Compound A49] | inhibited JAK1/JAK2 pathway in a concentration-dependent manner | 33 | 86 | 87 | effectively inhibited the downstream STAT4 phosphorylation induced by IL-12 | had no effect on TPO-induced downstream STAT3 phosphorylation
9 | [2H]C([2H])([2H])n1nc(-c2cccc(Nc3cc(Nc4ccc(OC)cn4)nnc3C(N)=O)c2OC)cc1P(=O)(C1CC1)C1CC1 [Compound A50] | inhibited JAK1/JAK2 pathway in a concentration-dependent manner |  |  | 77 | effectively inhibited the downstream STAT4 phosphorylation induced by IL-12 | had no effect on TPO-induced downstream STAT3 phosphorylation
10 | COc1c(Nc2cc(NC(=O)C3CC3)ncc2C(N)=O)cccc1-c1ccc(P(C)(C)=O)cc1 [Compound A61, 6-(cyclopropanecarboxamido)-4-((4′-(dimethylphosphoryl)-2-methoxy-[1,1′-biphenyl]-3-yl)amino)nicotinamide] |  | 8 | 23 | 59 |  | 
11 | COc1c(Nc2cc(NC(=O)C3CC3)ncc2C(N)=O)cccc1-c1ccc(P(C)(C)=O)nc1 [Compound A62] |  | 3 | 5 | 56 |  | 
12 | COc1c(Nc2cc(NC(=O)C3CC3)ncc2C(N)=O)cccc1-c1cnc(P(C)(C)=O)cn1 [Compound A63, 6-(cyclopropanecarboxamido)-4-((3-(5-(dimethylphosphoryl)pyrazin-2-yl)-2-methoxyphenyl)amino)nicotinamide] |  | 33 | 43 | 75 |  | 
13 | COc1cccnc1Nc1cc(Nc2cccc(-c3cc(P(=O)(C4CC4)C4CC4)n(C)n3)c2OC)c(C(N)=O)nn1 [Compound A65] |  | 36 | 43 | 93 |  | 
14 | COc1ccnc(Nc2cc(Nc3cccc(-c4cc(P(=O)(C5CC5)C5CC5)n(C)n4)c3OC)c(C(N)=O)nn2)c1 [Compound A66] |  | 59 | 82 | 96 |  | 
15 | COc1cccc(Nc2cc(Nc3cccc(-c4cc(P(=O)(C5CC5)C5CC5)n(C)n4)c3OC)c(C(N)=O)nn2)n1 [Compound A67] |  | 88 | 95 | 95 |  | 
16 | COc1cc(P(=O)(C2CC2)C2CC2)ccc1Nc1cc(Nc2cc(C)ccn2)nnc1C(N)=O [Compound B1, 4-((4-(dicyclopropylphosphoryl)-2-methoxyphenyl)amino)-6-((4-methylpyridin-2-yl)amino)pyridazine-3-carboxamide] |  |  |  | 0 |  | 
17 | CCP(=O)(CC)c1ccc(Nc2cc(NC(=O)C3CC3)ncc2C(N)=O)c(OC)c1 [Compound B3, 6-(cyclopropanecarboxamido)-4-((4-(diethylphosphoryl)-2-methoxyphenyl)amino)nicotinamide] |  |  |  | 19 |  | 
18 | COc1cc(P(=O)(C2CC2)C2CC2)ccc1Nc1cc(Nc2ccccn2)nnc1C(N)=O [Compound B4] |  |  |  | 8 |  | 
19 | COc1cc(P(=O)(C2CC2)C2CC2)ccc1Nc1cc(NC(=O)C2CC2)nnc1C(N)=O [Compound B5] |  |  |  | 0 |  | 
20 | COc1cc(P(=O)(C2CC2)C2CC2)ccc1Nc1cc(Nc2ccn(C)n2)nnc1C(N)=O [Compound B7] |  |  |  | 0 |  | 
21 | N#CC[C@H](C1CCCC1)n1cc(-c2ncnc3[nH]ccc23)cn1 [Ruxolitinib, reference compound] | inhibited JAK1/JAK2 pathway in a concentration-dependent manner |  |  |  |  | can inhibit the JAK2/JAK2 pathway

— patent US20260001898A1, “Heteroaryl compounds as inhibitors of TYK2/JAK1, composition and application thereof” (Accro Bioscience (HK) Limited, priority 2022, published 2026)
